What was measured:
[1] = molecular target: T1, Gamma-aminobutyric acid receptor subunit alpha-1 (Rattus norvegicus, UniProt P62813)
[2] = molecular target: Glutamate receptor ionotropic, NMDA 1 (Rattus norvegicus, UniProt P35439)
[3] = molecular target: Kappa-type opioid receptor (Homo sapiens, UniProt P41145)
[4] = molecular target: 5-hydroxytryptamine receptor 2B (Homo sapiens, UniProt P41595); type: functional, cell-based
[5] = molecular target: cGMP-inhibited 3',5'-cyclic phosphodiesterase 3A (Homo sapiens, UniProt Q14432); type: functional
[6] = molecular target: D(3) dopamine receptor (Homo sapiens, UniProt P35462)
[7] = molecular target: T1, Gamma-aminobutyric acid receptor subunit alpha-1; remark: listed apart in the source
[8] = molecular target: Delta-type opioid receptor (Homo sapiens, UniProt P41143)
[9] = molecular target: T2, 5-hydroxytryptamine receptor 3A (Homo sapiens, UniProt P46098); type: functional
T2 sequence (P46098 whole entry): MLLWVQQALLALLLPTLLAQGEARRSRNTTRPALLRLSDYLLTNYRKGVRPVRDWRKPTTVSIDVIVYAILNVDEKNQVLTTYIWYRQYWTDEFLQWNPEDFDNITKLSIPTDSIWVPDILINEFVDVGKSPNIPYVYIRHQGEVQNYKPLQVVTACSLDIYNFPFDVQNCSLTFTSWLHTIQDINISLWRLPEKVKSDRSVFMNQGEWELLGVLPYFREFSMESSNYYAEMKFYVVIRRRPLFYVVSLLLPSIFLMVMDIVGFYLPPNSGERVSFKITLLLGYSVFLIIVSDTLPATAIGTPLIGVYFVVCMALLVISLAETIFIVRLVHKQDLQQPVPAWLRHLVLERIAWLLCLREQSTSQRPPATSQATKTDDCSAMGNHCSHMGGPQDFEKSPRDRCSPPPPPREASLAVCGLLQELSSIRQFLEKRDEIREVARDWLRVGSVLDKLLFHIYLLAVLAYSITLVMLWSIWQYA

[10] = molecular target: T3, Alpha-2C adrenergic receptor (Homo sapiens, UniProt P18825); type: functional
T3 sequence (P18825 whole entry): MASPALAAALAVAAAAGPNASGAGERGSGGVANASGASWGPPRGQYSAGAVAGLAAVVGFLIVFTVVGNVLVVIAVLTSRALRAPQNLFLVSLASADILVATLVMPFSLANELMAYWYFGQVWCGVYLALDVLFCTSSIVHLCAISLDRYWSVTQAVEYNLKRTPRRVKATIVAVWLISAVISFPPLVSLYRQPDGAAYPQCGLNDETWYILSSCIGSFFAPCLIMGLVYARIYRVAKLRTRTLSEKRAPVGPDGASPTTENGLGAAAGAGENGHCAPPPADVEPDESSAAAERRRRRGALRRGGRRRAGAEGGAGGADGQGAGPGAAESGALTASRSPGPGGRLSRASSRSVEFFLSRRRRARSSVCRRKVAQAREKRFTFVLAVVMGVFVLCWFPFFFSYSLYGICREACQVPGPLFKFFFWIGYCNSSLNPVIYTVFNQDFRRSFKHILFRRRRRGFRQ

[11] = molecular target: Histamine H1 receptor (Homo sapiens, UniProt P35367)
[12] = molecular target: Cannabinoid receptor 1 (Homo sapiens, UniProt P21554); type: functional, cell-based
[13] = molecular target: T4, 5-hydroxytryptamine receptor 2C (Homo sapiens, UniProt P28335)
T4 sequence (P28335 whole entry): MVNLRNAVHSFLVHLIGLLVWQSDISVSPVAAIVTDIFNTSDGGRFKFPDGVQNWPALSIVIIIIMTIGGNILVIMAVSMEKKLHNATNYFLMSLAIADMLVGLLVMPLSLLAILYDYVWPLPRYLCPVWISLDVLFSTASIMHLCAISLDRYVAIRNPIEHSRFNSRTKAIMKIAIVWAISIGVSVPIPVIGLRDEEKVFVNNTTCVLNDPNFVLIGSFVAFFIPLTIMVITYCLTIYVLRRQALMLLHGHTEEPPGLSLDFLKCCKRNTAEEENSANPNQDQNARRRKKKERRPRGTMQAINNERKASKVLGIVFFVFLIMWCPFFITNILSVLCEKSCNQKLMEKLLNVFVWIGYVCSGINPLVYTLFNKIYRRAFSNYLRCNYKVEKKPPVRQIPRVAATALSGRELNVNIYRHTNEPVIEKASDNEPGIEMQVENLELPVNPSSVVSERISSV

[14] = molecular target: Adenosine receptor A2a (Homo sapiens, UniProt P29274)
[15] = molecular target: Sodium-dependent noradrenaline transporter (Homo sapiens, UniProt P23975)
Also: assay procedure not described here.

Histamine H1 receptor, sequence (P35367 whole entry): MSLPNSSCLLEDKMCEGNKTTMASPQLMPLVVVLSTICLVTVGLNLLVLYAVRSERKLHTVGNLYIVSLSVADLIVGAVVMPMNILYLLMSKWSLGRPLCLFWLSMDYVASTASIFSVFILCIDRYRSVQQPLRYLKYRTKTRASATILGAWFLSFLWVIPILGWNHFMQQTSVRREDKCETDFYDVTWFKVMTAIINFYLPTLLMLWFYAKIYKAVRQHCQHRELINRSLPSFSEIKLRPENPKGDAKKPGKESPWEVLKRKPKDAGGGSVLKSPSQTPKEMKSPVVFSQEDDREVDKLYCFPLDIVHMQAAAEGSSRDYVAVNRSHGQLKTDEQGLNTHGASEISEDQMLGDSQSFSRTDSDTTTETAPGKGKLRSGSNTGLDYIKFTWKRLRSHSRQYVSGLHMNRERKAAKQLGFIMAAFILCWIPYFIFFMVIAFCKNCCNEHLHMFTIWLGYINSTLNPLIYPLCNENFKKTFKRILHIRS
Sodium-dependent noradrenaline transporter, sequence (P23975 whole entry): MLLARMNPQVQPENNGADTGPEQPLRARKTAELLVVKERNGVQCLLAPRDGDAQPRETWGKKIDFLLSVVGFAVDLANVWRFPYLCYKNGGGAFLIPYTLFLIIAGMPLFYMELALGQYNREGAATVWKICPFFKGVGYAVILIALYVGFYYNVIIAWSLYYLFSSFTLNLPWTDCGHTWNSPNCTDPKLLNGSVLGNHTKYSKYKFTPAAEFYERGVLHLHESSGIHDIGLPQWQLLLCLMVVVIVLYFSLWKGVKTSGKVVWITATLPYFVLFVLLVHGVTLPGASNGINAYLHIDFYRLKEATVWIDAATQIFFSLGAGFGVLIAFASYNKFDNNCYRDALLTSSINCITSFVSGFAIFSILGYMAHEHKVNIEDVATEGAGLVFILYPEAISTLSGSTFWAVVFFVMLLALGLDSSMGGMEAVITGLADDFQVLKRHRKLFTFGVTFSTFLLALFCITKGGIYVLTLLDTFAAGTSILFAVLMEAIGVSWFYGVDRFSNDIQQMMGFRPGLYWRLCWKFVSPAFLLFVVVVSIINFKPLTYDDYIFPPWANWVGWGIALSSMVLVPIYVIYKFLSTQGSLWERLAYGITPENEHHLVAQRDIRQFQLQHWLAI
5-hydroxytryptamine receptor 2B, sequence (P41595 whole entry): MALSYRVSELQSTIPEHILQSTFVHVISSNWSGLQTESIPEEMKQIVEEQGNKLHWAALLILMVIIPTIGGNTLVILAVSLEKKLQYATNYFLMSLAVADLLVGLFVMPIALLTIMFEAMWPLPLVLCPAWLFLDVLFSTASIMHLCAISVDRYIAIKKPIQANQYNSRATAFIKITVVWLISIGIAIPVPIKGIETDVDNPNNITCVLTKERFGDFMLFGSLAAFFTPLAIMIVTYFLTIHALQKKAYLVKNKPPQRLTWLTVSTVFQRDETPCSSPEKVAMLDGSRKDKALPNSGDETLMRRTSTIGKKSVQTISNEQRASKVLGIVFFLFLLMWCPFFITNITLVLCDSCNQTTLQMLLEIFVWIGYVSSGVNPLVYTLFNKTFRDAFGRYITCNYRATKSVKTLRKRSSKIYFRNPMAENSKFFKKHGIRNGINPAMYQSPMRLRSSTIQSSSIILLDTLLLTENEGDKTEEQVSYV
T1 sequence (P62813 whole entry): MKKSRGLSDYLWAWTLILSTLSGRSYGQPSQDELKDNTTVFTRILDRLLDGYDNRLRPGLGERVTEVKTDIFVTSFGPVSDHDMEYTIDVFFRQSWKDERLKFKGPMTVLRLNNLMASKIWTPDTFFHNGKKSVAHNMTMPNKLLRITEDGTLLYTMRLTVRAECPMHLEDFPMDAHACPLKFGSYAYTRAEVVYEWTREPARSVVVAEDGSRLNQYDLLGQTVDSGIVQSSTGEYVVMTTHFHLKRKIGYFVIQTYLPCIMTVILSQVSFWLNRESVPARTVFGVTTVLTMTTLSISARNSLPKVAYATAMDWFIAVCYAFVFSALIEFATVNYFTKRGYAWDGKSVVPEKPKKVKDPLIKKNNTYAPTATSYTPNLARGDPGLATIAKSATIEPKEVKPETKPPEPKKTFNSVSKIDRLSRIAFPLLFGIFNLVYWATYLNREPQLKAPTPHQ
Delta-type opioid receptor, sequence (P41143 whole entry): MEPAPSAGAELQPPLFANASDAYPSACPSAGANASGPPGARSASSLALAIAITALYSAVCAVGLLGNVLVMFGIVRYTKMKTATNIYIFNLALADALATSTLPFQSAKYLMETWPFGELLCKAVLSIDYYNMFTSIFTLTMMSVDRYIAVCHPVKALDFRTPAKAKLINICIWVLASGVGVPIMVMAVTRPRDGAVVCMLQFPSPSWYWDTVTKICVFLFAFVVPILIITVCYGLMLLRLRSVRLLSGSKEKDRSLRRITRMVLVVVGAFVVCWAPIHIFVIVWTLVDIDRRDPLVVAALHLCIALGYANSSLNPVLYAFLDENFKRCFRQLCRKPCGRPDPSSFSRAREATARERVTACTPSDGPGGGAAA
Cannabinoid receptor 1, sequence (P21554 whole entry): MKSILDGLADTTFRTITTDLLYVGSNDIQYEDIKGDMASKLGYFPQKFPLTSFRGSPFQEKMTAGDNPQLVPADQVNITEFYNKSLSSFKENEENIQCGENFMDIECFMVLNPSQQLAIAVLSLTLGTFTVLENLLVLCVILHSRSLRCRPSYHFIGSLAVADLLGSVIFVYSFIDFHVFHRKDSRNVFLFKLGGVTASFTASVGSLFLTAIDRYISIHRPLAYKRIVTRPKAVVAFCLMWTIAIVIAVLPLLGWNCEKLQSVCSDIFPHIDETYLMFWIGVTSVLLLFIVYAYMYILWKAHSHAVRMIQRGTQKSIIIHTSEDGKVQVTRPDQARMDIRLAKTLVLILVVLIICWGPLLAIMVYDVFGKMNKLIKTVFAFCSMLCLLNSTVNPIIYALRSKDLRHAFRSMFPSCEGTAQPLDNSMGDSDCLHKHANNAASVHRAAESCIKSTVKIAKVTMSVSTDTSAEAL
Adenosine receptor A2a, sequence (P29274 whole entry): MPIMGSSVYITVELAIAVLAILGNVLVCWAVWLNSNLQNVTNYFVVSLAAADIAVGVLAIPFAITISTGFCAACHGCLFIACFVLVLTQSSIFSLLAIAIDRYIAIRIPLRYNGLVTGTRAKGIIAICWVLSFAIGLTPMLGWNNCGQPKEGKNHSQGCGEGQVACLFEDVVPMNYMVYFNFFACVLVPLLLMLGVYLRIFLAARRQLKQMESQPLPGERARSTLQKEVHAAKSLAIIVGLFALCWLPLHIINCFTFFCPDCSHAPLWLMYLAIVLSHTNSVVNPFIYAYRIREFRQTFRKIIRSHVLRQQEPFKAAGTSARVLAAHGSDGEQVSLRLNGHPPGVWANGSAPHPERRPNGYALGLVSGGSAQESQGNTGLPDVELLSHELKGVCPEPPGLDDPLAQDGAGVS
D(3) dopamine receptor, sequence (P35462 whole entry): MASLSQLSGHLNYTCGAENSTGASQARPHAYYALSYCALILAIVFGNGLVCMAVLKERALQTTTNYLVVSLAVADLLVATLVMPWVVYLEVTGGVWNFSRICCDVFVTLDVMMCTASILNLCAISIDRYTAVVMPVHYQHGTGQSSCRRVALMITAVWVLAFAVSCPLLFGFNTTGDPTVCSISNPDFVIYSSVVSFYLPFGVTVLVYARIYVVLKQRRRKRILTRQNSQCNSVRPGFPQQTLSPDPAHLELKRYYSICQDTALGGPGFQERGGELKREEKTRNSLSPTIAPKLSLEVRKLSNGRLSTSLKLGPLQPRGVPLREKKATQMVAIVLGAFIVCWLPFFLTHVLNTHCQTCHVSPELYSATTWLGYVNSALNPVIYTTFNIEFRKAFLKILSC
cGMP-inhibited 3',5'-cyclic phosphodiesterase 3A, sequence (Q14432 whole entry): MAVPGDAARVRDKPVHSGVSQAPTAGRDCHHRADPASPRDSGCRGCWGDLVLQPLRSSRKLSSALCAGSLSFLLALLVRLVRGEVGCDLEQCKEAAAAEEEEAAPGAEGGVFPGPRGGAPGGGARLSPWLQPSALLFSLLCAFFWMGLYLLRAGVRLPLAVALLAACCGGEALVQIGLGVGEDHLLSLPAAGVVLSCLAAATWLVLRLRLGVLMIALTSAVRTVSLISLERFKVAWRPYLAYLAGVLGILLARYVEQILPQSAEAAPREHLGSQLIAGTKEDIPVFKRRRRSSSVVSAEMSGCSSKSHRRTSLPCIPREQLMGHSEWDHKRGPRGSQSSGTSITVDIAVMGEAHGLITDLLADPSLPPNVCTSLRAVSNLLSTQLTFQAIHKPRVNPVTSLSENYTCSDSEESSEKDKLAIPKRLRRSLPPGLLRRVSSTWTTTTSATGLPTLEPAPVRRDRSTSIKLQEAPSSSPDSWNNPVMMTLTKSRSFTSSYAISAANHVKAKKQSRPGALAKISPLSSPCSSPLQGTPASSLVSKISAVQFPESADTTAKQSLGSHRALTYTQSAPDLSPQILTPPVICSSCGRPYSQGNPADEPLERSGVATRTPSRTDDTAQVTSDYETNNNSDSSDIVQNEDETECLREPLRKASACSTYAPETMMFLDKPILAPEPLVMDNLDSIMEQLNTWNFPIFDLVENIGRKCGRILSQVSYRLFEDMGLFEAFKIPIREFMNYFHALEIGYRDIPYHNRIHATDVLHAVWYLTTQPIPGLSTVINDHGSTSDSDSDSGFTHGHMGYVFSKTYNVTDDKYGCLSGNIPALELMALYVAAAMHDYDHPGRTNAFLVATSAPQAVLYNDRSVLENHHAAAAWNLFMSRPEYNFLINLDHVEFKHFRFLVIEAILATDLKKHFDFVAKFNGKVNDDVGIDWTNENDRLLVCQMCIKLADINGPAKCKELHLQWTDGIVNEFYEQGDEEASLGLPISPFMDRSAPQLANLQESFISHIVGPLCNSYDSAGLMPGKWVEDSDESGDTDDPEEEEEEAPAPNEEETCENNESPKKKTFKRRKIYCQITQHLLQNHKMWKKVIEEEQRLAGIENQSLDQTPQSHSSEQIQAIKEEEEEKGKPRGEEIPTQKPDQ

Row | SMILES | AC50 [1] [µM] | AC50 [2] [µM] | AC50 [3] [µM] | AC50 [4] [µM] | AC50 [5] [µM] | AC50 [6] [µM] | AC50 [7] [µM] | AC50 [8] [µM] | AC50 [9] [µM] | AC50 [10] [µM] | AC50 [11] [µM] | AC50 [12] [µM] | AC50 [13] [µM] | AC50 [14] [µM] | AC50 [15] [µM]
1 | CO/N=C(\C(=O)N[C@@H]1C(=O)N2C(C(=O)OCOC(=O)C(C)(C)C)=C(C)CS[C@H]12)c1csc(N)n1 | > 30 | > 30 | > 30 | > 30 | > 30 | > 30 | > 30 | > 30 | > 30 | > 30 | > 30 | > 30 | > 30 | – | –
2 | O=C(Cn1ccnc1[N+](=O)[O-])NCc1ccccc1 [BENZNIDAZOLE] | > 30 | > 30 | 21 | > 30 | > 30 | > 30 | > 30 | > 30 | > 30 | > 30 | > 30 | > 30 | > 30 | > 30 | > 30
3 | CCCC[N+]1(C)[C@@H]2C[C@@H](OC(=O)[C@H](CO)c3ccccc3)C[C@H]1[C@@H]1O[C@@H]12 (stereo partly specified) [BUTYLSCOPOLAMINE] | > 30 | – | – | – | – | – | – | – | – | – | – | – | – | – | –
4 | COCC1=C(C(=O)OC(C)OC(=O)OC(C)C)N2C(=O)[C@@H](NC(=O)/C(=N\OC)c3csc(N)n3)[C@H]2SC1 (stereo partly specified) [CEFPODOXIME PROXETIL] | > 30 | > 30 | > 30 | > 30 | > 30 | > 30 | > 30 | > 30 | > 30 | > 30 | > 30 | > 30 | > 30 | – | –
5 | CC(C)(N)Cc1ccc(Cl)cc1 [CHLORPHENTERMINE] | – | > 10 | > 10 | > 10 | > 30 | > 30 | > 10 | > 30 | > 30 | > 10 | 14 | > 30 | > 30 | > 30 | 13.7
6 | NS(=O)(=O)c1cc2c(cc1Cl)NC(CC1CCCC1)NS2(=O)=O (stereo unspecified) [CYCLOPENTHIAZIDE] | > 30 | > 30 | > 30 | > 30 | > 30 | > 30 | > 30 | > 30 | > 30 | > 30 | > 30 | > 30 | > 30 | – | –
7 | NS(=O)(=O)c1cc(Cl)c(Cl)c(S(N)(=O)=O)c1 [DICHLORPHENAMIDE] | – | > 10 | > 10 | > 10 | > 30 | > 30 | > 10 | > 30 | > 30 | > 10 | > 10 | > 30 | > 30 | > 10 | > 10
8 | N/N=c1/cc2c(n[nH]1)CCN(C(=O)c1ccccc1)C2 [ENDRALAZINE] | > 30 | > 30 | > 30 | > 30 | > 30 | > 30 | > 30 | > 30 | > 30 | > 30 | > 30 | > 30 | > 30 | – | –
9 | C=C1C[C@@H]2[C@H](CC[C@]3(C)C(=O)CC[C@@H]23)[C@@]2(C)C=CC(=O)C=C12 [EXEMESTANE] | – | > 10 | 2.41 | > 10 | > 30 | > 30 | > 10 | > 30 | > 30 | > 10 | > 10 | > 30 | > 30 | > 30 | > 30
10 | CC(C)=CCC1C(=O)N(c2ccccc2)N(c2ccccc2)C1=O [FEPRAZONE] | > 30 | – | – | – | – | – | – | – | – | – | – | – | – | – | –
11 | CC(=O)N(CC(O)CO)c1c(I)c(C(=O)NCC(O)CO)c(I)c(C(=O)NCC(O)CO)c1I (stereo unspecified) [IOHEXOL] | – | > 10 | > 10 | > 10 | > 30 | > 30 | > 10 | > 30 | > 30 | > 10 | > 10 | > 30 | > 30 | > 30 | > 30
12 | CN(CCCN1c2ccccc2CCc2ccccc21)CC(=O)c1ccc(Cl)cc1 [LOFEPRAMINE] | – | 25 | 4.8 | > 30 | > 30 | 3 | > 30 | 30 | > 30 | 17 | 0.65 | > 30 | 2.7 | > 30 | 0.022
13 | CN1C(=O)N(C)C2C1N(C)C(=O)N2C (stereo unspecified) [MEBICAR] | > 30 | > 30 | > 30 | – | > 30 | > 30 | > 30 | > 30 | > 30 | 14 | > 30 | > 30 | > 30 | – | –
14 | CC(=O)O[C@]1(C(C)=O)CC[C@H]2[C@@H]3C[C@H](C)C4=CC(=O)CC[C@]4(C)[C@H]3CC[C@@]21C [MEDROXYPROGESTERONE ACETATE] | 13.4 | – | – | – | – | – | – | – | – | – | – | – | – | > 30 | > 30
15 | Cn1cc[nH]c1=S [METHIMAZOLE] | > 30 | – | – | – | – | – | – | – | – | – | – | – | – | – | –
16 | CO[C@@]12[C@H](COC(N)=O)C3=C(C(=O)C(C)=C(N)C3=O)N1C[C@@H]1N[C@@H]12 [MITOMYCIN] | > 30 | – | – | – | – | – | – | – | – | – | – | – | – | – | –
17 | CN(C/C=C/c1ccccc1)Cc1cccc2ccccc12 [NAFTIFINE] | – | > 10 | 10.6 | > 10 | > 30 | > 30 | > 10 | > 30 | > 30 | 4.8 | > 10 | > 30 | > 30 | > 30 | 11.1
18 | CC(C)NCC1CCc2cc(CO)c([N+](=O)[O-])cc2N1 (stereo unspecified) [OXAMNIQUINE] | – | > 10 | 13.4 | > 10 | > 30 | 7.4 | > 10 | > 30 | > 30 | > 10 | > 10 | > 30 | > 30 | > 10 | > 30
19 | Nc1ccc(/N=N/c2ccccc2)c(N)n1 [PHENAZOPYRIDINE] | > 30 | > 30 | 3.3 | > 30 | 22 | 3.1 | > 30 | 2.9 | 3.3 | 3.7 | 4.5 | > 30 | 1.91 | – | –
20 | O=C1CCC(N2C(=O)c3ccccc3C2=O)C(=O)N1 (stereo unspecified) [THALIDOMIDE] | > 30 | > 10 | > 10 | > 10 | > 30 | > 10 | > 10 | > 30 | > 30 | > 10 | – | > 30 | > 30 | > 30 | > 10

Reference: ChEMBL document CHEMBL5291721, “A preclinical secondary pharmacology resource illuminates target-adverse drug reaction associations of marketed drugs” (Nat Commun, 2023)
